Source: patent US20250144067A1, “PERSONALIZED STARVATION THERAPY FOR CANCER” (Faeth Therapeutics, Inc., priority 2021, published 2025)
Structures can show the parent of a compound that is named as a salt.

How the values were obtained:
[1] = tested on: NCI-H292 lung cancer cells; assay: FDA drug screening, complete media vs cholesterol-free media without statin (TABLE 1); type: cell-based, human
[2] = tested on: NCI-H292 lung cancer cells; assay: FDA drug screening, complete media vs cholesterol-free media with simvastatin (TABLE 2); type: cell-based, human; settings: for Cholesterol-free media + simvastatin (0.04 μM) / Complete Media: NCI-H292 cells
[3] = Complete minus Cholesterol-free, […]
[4] = NCI-H292 cells, FDA drug library screen, cholesterol-free media without statin
[5] = NCI-H292 cells, FDA drug library screen, complete media
[6] = FDA drug library screen, cholesterol-free media with simvastatin 0.04 μM
[7] = FDA drug library screen, complete media
[8] = complete media vs cholesterol-free media + simvastatin (0.04 μM), […]
[9] = Complete minus Cholesterol-free, greater than 0 enhanced anti-cancer activity, about 0 neutral, below 0 antagonists
[10] = NCI-H292 cells in cholesterol-free media without statin
[11] = NCI-H292 cells in complete media
[12] = complete media minus cholesterol-free media + simvastatin, >0 enhanced anti-cancer activity, about 0 neutral, <0 antagonist
[13] = NCI-H292 cells, cholesterol-free media without statin, FDA drug library screen
[14] = NCI-H292 cells, complete media, FDA drug library screen
[15] = cholesterol-free media with simvastatin 0.04 μM, FDA drug library screen (TABLE 2)
[16] = complete media, FDA drug library screen (TABLE 2)
[17] = complete media minus cholesterol-free media + simvastatin (0.04 μM), >0 enhanced anti-cancer activity, about 0 neutral, <0 antagonist
[18] = complete media vs cholesterol-free media + simvastatin (0.04 μM), >0 enhanced anti-cancer activity, about 0 neutral, <0 antagonist
[19] = Complete minus Cholesterol-free, greater than 0 enhanced anti-cancer activity, about 0 neutral, below 0 antagonist
[20] = NCI-H292 cells, cholesterol-free media without statin
[21] = complete vs cholesterol-free media, greater than 0 enhanced anti-cancer activity, about 0 neutral, below 0 antagonists
[22] = FDA library drug in cholesterol-free media with simvastatin 0.04 μM
[23] = FDA library drug in complete media
[24] = Complete minus Cholesterol-free, >0 enhanced anti-cancer activity, about 0 neutral, <0 antagonist

## COc1ccc([C@@H]2CC(=O)c3c(O)cc(O[C@@H]4O[C@H](CO[C@@H]5O[C@@H](C)[C@H](O)[C@@H](O)[C@H]5O)[C@@H](O)[C@H](O)[C@H]4O)cc3O2)cc1O [Hesperidin]
[1]; [3]
  Difference: −0.08
[1]; [4]
  Cholesterol-free: 1.106
[1]; [5]
  Complete: 1.03
[2]; [6]
  Cholesterol-free media + simvastatin (0.04 μM): 1.822
[2]; [7]
  Complete Media: 1.671
[2]; [8]
  Difference: −0.15

## O=c1oc2ccccc2c(O)c1Cc1c(O)c2ccccc2oc1=O [Dicoumarol]
[1]; [9]
  Difference: −0.93
[1]; [10]
  Cholesterol-free: 2.049
[1]; [11]
  Complete: 1.114
[2]; [6]
  Cholesterol-free media + simvastatin (0.04 μM): 0.8973
[2]; [7]
  Complete Media: 1.089
[2]; [12]
  Difference: 0.19

## C[C@@H](O)[C@H]1C(=O)N2C(C(=O)O)=C(S[C@@H]3CN[C@H](C(=O)N(C)C)C3)[C@H](C)[C@H]12 [Meropenem (trihydrate)]
[1]; [13]
  Cholesterol-free: 1.169
[1]; [14]
  Complete: 1.522
[1]; complete vs cholesterol-free media, >0 enhanced anti-cancer activity, about 0 neutral, <0 antagonist
  Difference: 0.35
[2]; [15]
  Cholesterol-free media + simvastatin (0.04 μM): 1.099
[2]; [16]
  Complete Media: 1.05
[2]; [17]
  Difference: −0.05

## COc1ccnc(C[S+]([O-])c2nc3cc(OC(F)F)ccc3[n-]2)c1OC.[Na+] (centres unmarked) [Pantoprazole (sodium)]
[1]; [3]
  Difference: −0.01
[1]; [13]
  Cholesterol-free: 0.8197
[1]; [14]
  Complete: 0.8107
[2]; cholesterol-free media with simvastatin 0.04 μM, […]
  Cholesterol-free media + simvastatin (0.04 μM): 1.655
[2]; complete media, […]
  Complete Media: 1.781
[2]; complete media minus cholesterol-free media + simvastatin, […]
  Difference: 0.13

## Cc1oc(=O)oc1COC(=O)C1=C([C@H]2CCCO2)S[C@@H]2[C@@H]([C@@H](C)O)C(=O)N12 [Faropenem daloxate]
[1]; [9]
  Difference: −0.54
[1]; [10]
  Cholesterol-free: 1.449
[1]; [11]
  Complete: 0.9042
[2]; [6]
  Cholesterol-free media + simvastatin (0.04 μM): 1.071
[2]; [7]
  Complete Media: 0.9664
[2]; [18]
  Difference: −0.10

## CC1=NN(c2ccccc2)C(=O)C1 [Edaravone]
[1]; [19]
  Difference: −0.18
[1]; [4]
  Cholesterol-free: 1.236
[1]; [5]
  Complete: 1.052
[2]; [15]
  Cholesterol-free media + simvastatin (0.04 μM): 1.019
[2]; [16]
  Complete Media: 1.02
[2]; [17]
  Difference: 0.00

## C[Se]CC[C@H](N)C(=O)O [Selenomethionine]
[1]; [9]
  Difference: −0.63
[1]; [10]
  Cholesterol-free: 1.898
[1]; [11]
  Complete: 1.265
[2]; [6]
  Cholesterol-free media + simvastatin (0.04 μM): 1.83
[2]; [7]
  Complete Media: 1.71
[2]; [18]
  Difference: −0.12

## CO[C@@H]1[C@@H](OC(N)=O)[C@@H](O)[C@H](Oc2ccc3c(O)c(NC(=O)c4ccc(O)c(CC=C(C)C)c4)c(=O)oc3c2C)OC1(C)C [Novobiocin (Sodium)]
[1]; [19]
  Difference: −0.12
[1]; [4]
  Cholesterol-free: 1.193
[1]; [5]
  Complete: 1.072
[2]; [6]
  Cholesterol-free media + simvastatin (0.04 μM): 1.139
[2]; [7]
  Complete Media: 1.056
[2]; [18]
  Difference: −0.08

## Baricitinib (phosphate)
[1]; [3]
  Difference: −0.20
[1]; [20]
  Cholesterol-free: 0.7762
[1]; NCI-H292 cells, complete media
  Complete: 0.5811
[2]; [6]
  Cholesterol-free media + simvastatin (0.04 μM): 0.6632
[2]; [7]
  Complete Media: 0.5619
[2]; [8]
  Difference: −0.10

## Cc1ccc(C(=O)c2ccc(CC(=O)O)n2C)cc1 [Tolmetin]
[1]; [20]
  Cholesterol-free: 0.9799
[1]; NCI-H292 cells, complete media
  Complete: 0.6144
[1]; [21]
  Difference: −0.37
[2]; [22]
  Cholesterol-free media + simvastatin (0.04 μM): 1.718
[2]; [23]
  Complete Media: 1.392
[2]; [18]
  Difference: −0.33

## CC1CCc2c(N3CCC(O)CC3)c(F)cc3c(=O)c(C(=O)O)cn1c23 (centres unmarked) [Nadifloxacin]
[1]; [24]
  Difference: −0.03
[1]; [13]
  Cholesterol-free: 0.9891
[1]; [14]
  Complete: 0.9558
[2]; [22]
  Cholesterol-free media + simvastatin (0.04 μM): 1.859
[2]; [23]
  Complete Media: 1.054
[2]; [18]
  Difference: −0.80

## Methylergometrine (maleate)
[1]; [20]
  Cholesterol-free: 1.022
[1]; complete vs cholesterol-free media, […]
  Difference: −0.31
[2]; [6]
  Cholesterol-free media + simvastatin (0.04 μM): 1.017
[2]; [7]
  Complete Media: 0.9007
[2]; [8]
  Difference: −0.12

## C[C@H]1COc2c(N3CCN(C)CC3)c(F)cc3c(=O)c(C(=O)O)cn1c23 [Levofloxacin (hydrate)]
[1]; [9]
  Difference: −0.48
[1]; [10]
  Cholesterol-free: 1.308
[1]; [11]
  Complete: 0.8243
[2]; [6]
  Cholesterol-free media + simvastatin (0.04 μM): 1.078
[2]; [7]
  Complete Media: 0.9583
[2]; [18]
  Difference: −0.12

## CCOC(=O)OC(C)OC(=O)[C@@H]1N2C(=O)[C@@H](NC(=O)[C@H](N)c3ccccc3)[C@H]2SC1(C)C (some centres unmarked) [Bacampicillin (hydrochloride)]
[1]; [19]
  Difference: −0.18
[1]; [4]
  Cholesterol-free: 1.212
[1]; [5]
  Complete: 1.028
[2]; [6]
  Cholesterol-free media + simvastatin (0.04 μM): 1.049
[2]; [7]
  Complete Media: 0.956
[2]; [18]
  Difference: −0.09

## O=C1OC(c2ccc(O)cc2)(c2ccc(O)cc2)c2ccccc21 [Phenolphthalein]
[1]; [24]
  Difference: −0.30
[1]; [20]
  Cholesterol-free: 1.17
[1]; NCI-H292 cells, complete media
  Complete: 0.8721
[2]; drug in cholesterol-free media with simvastatin 0.04 μM
  Cholesterol-free media + simvastatin (0.04 μM): 1.026
[2]; drug in complete media
  Complete Media: 0.7863
[2]; [18]
  Difference: −0.24

## Estradiol (cypionate)
[1]; [3]
  Difference: −0.22
[1]; [20]
  Cholesterol-free: 1.127
[1]; NCI-H292 cells, complete media
  Complete: 0.9066
[2]; [6]
  Cholesterol-free media + simvastatin (0.04 μM): 0.9809
[2]; [7]
  Complete Media: 0.8945
[2]; [8]
  Difference: −0.09

## CO/N=C(\C(=O)N[C@@H]1C(=O)N2C(C(=O)O)=C(COC(C)=O)CS[C@H]12)c1csc(N)n1 [Cefotaxime (sodium salt)]
[1]; [20]
  Cholesterol-free: 1.268
[1]; NCI-H292 cells, complete media
  Complete: 0.9622
[1]; [21]
  Difference: −0.31
[2]; [6]
  Cholesterol-free media + simvastatin (0.04 μM): 1.284
[2]; [7]
  Complete Media: 1.139
[2]; [18]
  Difference: −0.15

## O=C(CCCN1CC=C(n2c(=O)[nH]c3ccccc32)CC1)c1ccc(F)cc1 [Droperidol]
[1]; [24]
  Difference: −0.22
[1]; [20]
  Cholesterol-free: 1.218
[1]; NCI-H292 cells, complete media
  Complete: 1.002
[2]; [22]
  Cholesterol-free media + simvastatin (0.04 μM): 1.065
[2]; [23]
  Complete Media: 0.7994
[2]; [18]
  Difference: −0.27

## COc1cccc(OC)c1C(=O)N[C@@H]1C(=O)N2[C@@H]1SC(C)(C)[C@@H]2C(=O)O [Methicillin (sodium salt)]
[1]; [24]
  Difference: −0.06
[1]; [13]
  Cholesterol-free: 1.114
[1]; [14]
  Complete: 1.051
[2]; [22]
  Cholesterol-free media + simvastatin (0.04 μM): 1.829
[2]; [23]
  Complete Media: 1.406
[2]; [18]
  Difference: −0.42

## COc1ccc(CCO[C@@H]2CCCC[C@H]2N2CC[C@@H](O)C2)cc1OC [Vernakalant (Hydrochloride)]
[1]; [24]
  Difference: −0.26
[1]; [20]
  Cholesterol-free: 1.252
[1]; NCI-H292 cells, complete media
  Complete: 0.9876
[2]; cholesterol-free media with simvastatin 0.04 μM, cell growth value in FDA drug screen
  Cholesterol-free media + simvastatin (0.04 μM): 1.555
[2]; complete media, cell growth value in FDA drug screen
  Complete Media: 1.614
[2]; [12]
  Difference: 0.06

## Cc1cccc(C)c1OCC(=O)N[C@@H](Cc1ccccc1)[C@@H](O)C[C@H](Cc1ccccc1)NC(=O)[C@H](C(C)C)N1CCCNC1=O [Lopinavir]
[1]; [20]
  Cholesterol-free: 1.281
[1]; NCI-H292 cells, complete media
  Complete: 0.8723
[1]; [21]
  Difference: −0.41
[2]; [6]
  Cholesterol-free media + simvastatin (0.04 μM): 1.549
[2]; [7]
  Complete Media: 1.393
[2]; [18]
  Difference: −0.16

## Nc1ccn([C@@H]2O[C@H](CO)[C@@H](O)[C@@H]2O)c(=O)n1 [Cytarabine (hydrochloride)]
[1]; [19]
  Difference: −0.08
[1]; [4]
  Cholesterol-free: 0.1883
[1]; [5]
  Complete: 0.1064
[2]; [15]
  Cholesterol-free media + simvastatin (0.04 μM): 0.3553
[2]; [16]
  Complete Media: 0.3011
[2]; [17]
  Difference: −0.05
